Assay results published in patent US11008572B2, “Methods and compositions for modulating splicing” (SKYHAWK THERAPEUTICS, INC., priority 2017, dated 2021).

How the values were obtained:
[1] = test system: FOXM1^A2 mRNA and FOXM1^BC mRNA; experiment: Splicing assay (FOXM1), qPCR of isoform mRNAs; assay type: cell-based; conditions: for IC50: FoxM1 BC mRNA decrease (exon included), read-out: Splice IC50 (nM) FoxM1 BC mRNA decrease (exon included); for EC50: read-out: Splice EC50 (nM) FoxM1 A mRNA increase (exon excluded)
Description: Various cells lines were treated with the SMSMs described herein. RNA was then isolated, cDNA synthesized, qPCR performed and the levels of various mRNA targets of the SMSMs were determined. In some instances, RNA was isolated, cDNA synthesized, qPCR performed and the levels of mRNA isoforms in the various cell samples were determined.
On the day of the experiment, a 96-well plate was seeded with the cell lines of interest. The cells were diluted with full growth media to a concentration of 2.0×10^5 cells/mL and 100 μL of cells were added to each well (20,000 cells per well). The cells were treated with a compound immediately after plating.
The compounds were then added to the cell plate using the HP compound dispenser. In the initial experiment, a top concentration of 10 μM and an 8 point 4-fold dilution scheme was used. The stock compounds were made at a concentration of 5 mM, and the DMSO concentration was set to 0.2%. DMSO was used to normalize all the compound-containing wells and the untreated cells.
The treated cells were incubated at 37° C. in a 5% CO2 incubator for the desired amount of time. Plates were placed in a plastic bag with a wet paper towel to prevent evaporation.
RNA was isolated using the Cells to CT kit (ThermoFisher, AM1728). The cells were washed once with 100 μL cold PBS. 50 μL of lysis buffer was added to each well/tube (49.5 μL lysis buffer+0.5 μL DNase I per well/tube). The lysis reaction was mixed and incubated at room temperature for 5 minutes. 5 μL of stop solution was added directly into each cell lysis reaction and mixed by pipetting up and down 5 times. The plates/tubes were incubated at room temperature for 2 minutes then placed on ice if the cDNA synthesis was to be performed immediately. Otherwise, the plates/tubes were stored at −80° C. cDNA synthesis reactions were then performed. Reverse Transcription (RT) Master mix was prepared according to the table below.
40 μL RT master mix was added to PCR tubes or plate wells. 10 μL of RNA was added to each tube/well. The RT thermal cycler program was then run and tubes or plate wells were incubated at 37° C. for 1 hour, then at 95° C. for 5 minutes to deactivate the enzyme.
The qPCR was performed using a QuantStudio 6 instrument (ThermoFisher) and the following cycling conditions and according to the tables below. All samples and standards were analyzed in triplicate. Cycle 1: 2 minutes at 50° C. Cycle 2: 10 minutes at 95° C. Cycle 3 (repeat 40 times): 15 seconds at 95° C., 1 minute at 60° C.
The determined isoform 2and isoform 1quantities were then be used to determine the isoform 2: […] at the various compound concentrations. The PPIA quantities were used in the normalization to account of cell proliferation effects of the compounds.
The dilution necessary to make the top standard is calculated. A top concentration 200,000,000 copies/μL of the stock plasmid was prepared in TE buffer. A series of 10-fold dilutions, also in TE, were then made. A total of 5 μL of each standard was used in a qPCR well to generate samples containing 109 copies, […], 10^7copies, 10^6 copies, 10^5 copies, 10^4 copies, 10^3 copies, 10^2 copies, 10^1copies, and 0 copies.
An assay to measure the FOXM1^A2 mRNA and FOXM1^BC mRNA, or MADD^WT (isoform 4) mRNA and MADD^Ex16 (isoform 3) mRNA, or MAPTau^4R mRNA and MAPTau^3R mRNA simultaneously in cell wells was performed. The RNA values were measured relative to DMSO control and also included a housekeeping gene, PPIA to ensure data was consistent. The mRNA values were measured after 24 hours of incubation with the SMSM compounds.

[2] = test system: A-673 cells; experiment: Cell viability, crystal violet staining; assay type: cell-based; conditions: Homo sapiens, A673, cell viability, read-out: A-673 IC50 (nM) Cell viability
Outline: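 Readout is absorbance at 570 nm of crystal violet, taken up in 0.1 M sodium citrate in 50% ethanol after staining with 0.5% dye in 25% methanol. Plates held 5×10^3 cells per well, and compounds were added one day after seeding for 72 hours. Data are relative to vehicle, mean±SE.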

Question: Which results are given for `Oc1cc(-c2cn[nH]c2)ccc1-c1ccc(O[C@@H]2C[C@H]3CC[C@@H](C2)N3)nn1` [compound 140, 2-(6-(((1R,3s,5S)-8-azabicyclo[3.2.1]octan-3-yl)oxy)pyridazin-3-yl)-5-(1H-pyrazol-4-yl)phenol]?
Answer: IC50 [1]: 10 to 100 nM; EC50 [1]: 10 to 100 nM; IC50 [2]: 101 to 250 nM

Question: With `Oc1cc(-c2cn[nH]c2)ccc1-c1ccc(O[C@H]2C[C@H]3CC[C@@H](C2)N3)nn1` [compound 141, 2-(6-(((1R,3r,5S)-8-azabicyclo[3.2.1]octan-3-yl)oxy)pyridazin-3-yl)-5-(1H-pyrazol-4-yl)phenol] as the compound, how does the IC50 [1] read?
Answer: > 1000 nM

Question: And the EC50 [1]?
Answer: > 1000 nM

Question: And the IC50 [2]?
Answer: > 1000 nM

Question: For `CN(c1ccc(-c2ccc(-c3cn[nH]c3)cc2O)nn1)[C@H]1C[C@H]2CNC[C@H]2C1` [compound 142, 2-(6-(methyl((3R,5r,6S)-octahydrocyclopenta[c]pyrrol-5-yl)amino)pyridazin-3-yl)-5-(1H-pyrazol-4-yl)phenol], which IC50 [1] is on record?
Answer: 501 to 1000 nM

Question: What about the EC50 [1] of the same compound?
Answer: 251 to 500 nM

Question: What about the IC50 [2] of the same compound?
Answer: > 1000 nM

Question: `CN(c1ccc(-c2ccc(-c3cn[nH]c3)cc2O)nn1)[C@@H]1C[C@H]2CNC[C@H]2C1` [compound 143, 2-(6-(methyl((3R,5s,6S)-octahydrocyclopenta[c]pyrrol-5-yl)amino)pyridazin-3-yl)-5-(1H-pyrazol-4-yl)phenol] was tested. Which IC50 [1] did it give?
Answer: 501 to 1000 nM

Question: What about the EC50 [1] of the same compound?
Answer: 251 to 500 nM

Question: What about the IC50 [2] of the same compound?
Answer: > 1000 nM

Question: Which results are given for `CN(c1ccc(-c2ccc(-c3cn[nH]c3)cc2O)nn1)[C@@H]1[C@@H]2CC[C@H]1CNC2` [compound 144, 2-(6-(((1R,5S,8s)-3-azabicyclo[3.2.1]octan-8-yl)(methyl)amino)pyridazin-3-yl)-5-(1H-pyrazol-4-yl)phenol]?
Answer: IC50 [1]: > 1000 nM; EC50 [1]: > 1000 nM; IC50 [2]: 501 to 1000 nM

Question: For `CN(c1ccc(-c2ccc(-c3cn[nH]c3)cc2O)nn1)[C@H]1[C@@H]2CC[C@H]1CNC2` [compound 145, 2-(6-(((1R,5S,8r)-3-azabicyclo[3.2.1]octan-8-yl)(methyl)amino)pyridazin-3-yl)-5-(1H-pyrazol-4-yl)phenol], which IC50 [1] is on record?
Answer: > 1000 nM

Question: And the EC50 [1]?
Answer: > 1000 nM

Question: And the IC50 [2]?
Answer: > 1000 nM

Question: With `CN(c1ccc(-c2ccc(-c3cn[nH]c3)cc2O)nn1)[C@H]1C[C@H]2C[C@@H]1CN2` [compound 146, 2-(6-(((1R,4R,5S)-2-azabicyclo[2.2.1]heptan-5-yl)(methyl)amino)pyridazin-3-yl)-5-(1H-pyrazol-4-yl)phenol] as the compound, how does the IC50 [1] read?
Answer: 251 to 500 nM

Question: What about the EC50 [1] of the same compound?
Answer: 101 to 250 nM

Question: And the IC50 [2]?
Answer: > 1000 nM

Question: How did the IC50 [1] turn out when `CN(c1ccc(-c2ccc(-c3cn[nH]c3)cc2O)nn1)[C@@H]1C[C@@H]2C[C@H]1CN2` [compound 147, 2-(6-(((1S,4S,5R)-2-azabicyclo[2.2.1]heptan-5-yl)(methyl)amino)pyridazin-3-yl)-5-(1H-pyrazol-4-yl)phenol] was run?
Answer: 251 to 500 nM

Question: What about the EC50 [1] of the same compound?
Answer: 101 to 250 nM

Question: And the IC50 [2]?
Answer: > 1000 nM

Question: What does the source list for `CN(c1ccc(-c2ccc(-c3cn[nH]c3)cc2O)nn1)[C@@H]1C[C@H]2C[C@@H]1CN2` [compound 148, 2-(6-(((1R,4R,5R)-2-azabicyclo[2.2.1]heptan-5-yl)(methyl)amino)pyridazin-3-yl)-5-(1H-pyrazol-4-yl)phenol]?
Answer: IC50 [1]: > 1000 nM; EC50 [1]: > 1000 nM; IC50 [2]: > 1000 nM

Question: With `CN(c1ccc(-c2ccc(-c3cn[nH]c3)cc2O)nn1)[C@H]1C[C@@H]2C[C@H]1CN2` [compound 149, 2-(6-(((1S,4S,5S)-2-azabicyclo[2.2.1]heptan-5-yl)(methyl)amino)pyridazin-3-yl)-5-(1H-pyrazol-4-yl)phenol] as the compound, how does the IC50 [1] read?
Answer: > 1000 nM

Question: And the EC50 [1]?
Answer: 251 to 500 nM

Question: And the IC50 [2]?
Answer: > 1000 nM

Question: Which IC50 [1] does the source give for `C[C@]12CC[C@](C)(C[C@H](Oc3ccc(-c4ccc(-c5cn[nH]c5)cc4O)nn3)C1)N2` [compound 153, 2-(6-(((1R,3r,5S)-1,5-dimethyl-8-azabicyclo[3.2.1]octan-3-yl)oxy)pyridazin-3-yl)-5-(1H-pyrazol-4-yl)phenol] here?
Answer: > 1000 nM

Question: And the EC50 [1]?
Answer: > 1000 nM

Question: What about the IC50 [2] of the same compound?
Answer: > 1000 nM

Question: `CN(c1ccc(-c2ccc(-c3cn[nH]c3)cc2O)nn1)[C@H]1C[C@H]2COC[C@@H](C1)N2` [compound 155, 2-(6-(((1R,5S,7s)-3-oxa-9-azabicyclo[3.3.1]nonan-7-yl)(methyl)amino)pyridazin-3-yl)-5-(1H-pyrazol-4-yl)phenol] was tested. Which IC50 [1] did it give?
Answer: > 1000 nM

Question: And the EC50 [1]?
Answer: > 1000 nM

Question: And the IC50 [2]?
Answer: > 1000 nM

Question: With `Oc1cc(-c2cn[nH]c2)ccc1-c1ccc(O[C@H]2C[C@H]3COC[C@@H](C2)N3)nn1` [compound 158, 2-(6-(((1R,5S,7s)-3-oxa-9-azabicyclo[3.3.1]nonan-7-yl)oxy)pyridazin-3-yl)-5-(1H-pyrazol-4-yl)phenol] as the compound, how does the IC50 [1] read?
Answer: > 1000 nM

Question: What about the EC50 [1] of the same compound?
Answer: > 1000 nM

Question: What about the IC50 [2] of the same compound?
Answer: > 1000 nM

Question: With `Oc1cc(-c2cn[nH]c2)ccc1-c1ccc(O[C@@H]2C[C@H]3COC[C@@H](C2)N3)nn1` [compound 159, 2-(6-(((1R,5S,7r)-3-oxa-9-azabicyclo[3.3.1]nonan-7-yl)oxy)pyridazin-3-yl)-5-(1H-pyrazol-4-yl)phenol] as the compound, how does the IC50 [1] read?
Answer: 501 to 1000 nM

Question: What about the EC50 [1] of the same compound?
Answer: 251 to 500 nM

Question: And the IC50 [2]?
Answer: 501 to 1000 nM

Question: Which IC50 [1] does the source give for `CN(c1ccc(-c2cc3oc(=O)n(C)c3cc2O)nn1)[C@@H]1C[C@H]2CC[C@@H](C1)N2` [compound 164, 6-(6-(((1R,3s,5S)-8-azabicyclo[3.2.1]octan-3-yl)(methyl)amino)pyridazin-3-yl)-5-hydroxy-3-methylbenzo[d]oxazol-2(3H)-one] here?
Answer: 10 to 100 nM

Question: And the EC50 [1]?
Answer: 10 to 100 nM

Question: And the IC50 [2]?
Answer: 251 to 500 nM

Question: For `CN(c1ccc(-c2ccc(-c3cnn(C)c(=O)c3)cc2O)nn1)[C@H]1C[C@]2(C)CC[C@](C)(C1)N2` [compound 170, 5-(4-(6-(((1R,3s,5S)-1,5-dimethyl-8-azabicyclo[3.2.1]octan-3-yl)(methyl)amino)pyridazin-3-yl)-3-hydroxyphenyl)-2-methylpyridazin-3(2H)-one], which IC50 [1] is on record?
Answer: < 10 nM

Question: What about the EC50 [1] of the same compound?
Answer: < 10 nM

Question: What about the IC50 [2] of the same compound?
Answer: < 10 nM

Question: How did the IC50 [1] turn out when `CN(c1ccc(-c2ccc(-c3ccn(C)c(=O)n3)cc2O)nn1)[C@H]1C[C@]2(C)CC[C@](C)(C1)N2` [compound 180, 4-(4-(6-(((1R,3s,5S)-1,5-dimethyl-8-azabicyclo[3.2.1]octan-3-yl)(methyl)amino)pyridazin-3-yl)-3-hydroxyphenyl)-1-methylpyrimidin-2(1H)-one] was run?
Answer: 10 to 100 nM

Question: What about the EC50 [1] of the same compound?
Answer: 10 to 100 nM

Question: And the IC50 [2]?
Answer: 101 to 250 nM

Question: For `Cc1cc(-c2ccc(N(C)[C@H]3C[C@]4(C)CC[C@](C)(C3)N4)nn2)c(O)cc1-c1cn[nH]c1` [compound 182, 2-(6-(((1R,3s,5S)-1,5-dimethyl-8-azabicyclo[3.2.1]octan-3-yl)(methyl)amino)pyridazin-3-yl)-4-methyl-5-(1H-pyrazol-4-yl)phenol], which IC50 [1] is on record?
Answer: < 10 nM

Question: What about the EC50 [1] of the same compound?
Answer: < 10 nM

Question: What about the IC50 [2] of the same compound?
Answer: 10 to 100 nM

Question: What does the source list for `CN(c1ccc(-c2ccc(-c3cnn(C(F)(F)F)c3)cc2O)nn1)[C@H]1C[C@]2(C)CC[C@](C)(C1)N2` [compound 186, 2-(6-(((1R,3s,5S)-1,5-dimethyl-8-azabicyclo[3.2.1]octan-3-yl)(methyl)amino)pyridazin-3-yl)-5-(1-(trifluoromethyl)-1H-pyrazol-4-yl)phenol]?
Answer: IC50 [1]: 101 to 250 nM; EC50 [1]: 10 to 100 nM; IC50 [2]: > 1000 nM

Question: With `CN(c1ccc(-c2ccc(-c3ccn(CF)c(=O)c3)cc2O)nn1)[C@H]1C[C@]2(C)CC[C@](C)(C1)N2` [compound 187, 4-(4-(6-(((1R,3s,5S)-1,5-dimethyl-8-azabicyclo[3.2.1]octan-3-yl)(methyl)amino)pyridazin-3-yl)-3-hydroxyphenyl)-1-(fluoromethyl)pyridin-2(1H)-one] as the compound, how does the IC50 [1] read?
Answer: < 10 nM

Question: And the EC50 [1]?
Answer: < 10 nM

Question: What about the IC50 [2] of the same compound?
Answer: 10 to 100 nM
